Test results as given in publication PMC9103764, “Pilot Study on Acute Effects of Pharmacological Intraperitoneal L-Homoarginine on Homeostasis of Lysine and Other Amino Acids in a Rat Model of Isoprenaline-Induced Takotsubo Cardiomyopathy” (International Journal of Molecular Sciences, 2022).

What was measured:
[1] = Free amino acids by GC-MS in organ homogenates of rats given i.p. hArg (isoprenaline-induced takotsubo model)
polyamine catabolism = test: Putrescine:spermidine (PUT/SPD) molar ratio in organ homogenates; conditions: R17; hArg 440 mg/kg i.p.; 14 min; without isoprenaline
[2] = design: method as in PMID 24004504; conditions: cited from earlier work
[3] = test system: L-Arginine:glycine amidinotransferase (AGAT); test: Equilibrium constants of the AGAT-catalyzed reactions calculated from free amino acid concentrations in rat organs; assay type: in vivo, Sprague-Dawley rats
arginase = test system: arginase; design: method as in PMID 31028716; conditions: cited from earlier work
[4] = design: method as in PMID 28710553; conditions: single i.p. hArg 20, 220, 440 mg/kg; cited from earlier work
[5] = oral hArg 125 mg/day, cited from earlier work
[6] = design: method as in PMID 31776762; conditions: decarboxylation product of hArg; rat TTC model; cited from earlier work
[7] = design: method as in PMID 9127274; conditions: rat; cited from earlier work
serotonin receptor 4 = conditions: cited from earlier work
[8] = R1, hArg 440 mg/kg i.p., sacrifice 32 min, ISO 50 mg/kg i.p. at 15 min
[9] = R2, hArg 20 mg/kg i.p., sacrifice 64 min, ISO 50 mg/kg i.p. at 15 min
[10] = R3, hArg 20 mg/kg i.p., sacrifice 28 min, ISO 50 mg/kg i.p. at 15 min
[11] = R4, hArg 440 mg/kg i.p., sacrifice 87 min, ISO 50 mg/kg i.p. at 15 min
[12] = R13, hArg 20 mg/kg i.p., sacrifice 126 min, ISO 50 mg/kg i.p. at 15 min
[13] = R14, hArg 220 mg/kg i.p., sacrifice 108 min, ISO 50 mg/kg i.p. at 15 min
[14] = R17, hArg 440 mg/kg i.p., sacrifice 14 min, no ISO
[15] = R18, hArg 20 mg/kg i.p., sacrifice 114 min, ISO 50 mg/kg i.p. at 15 min
[16] = R19, hArg 220 mg/kg i.p., sacrifice 98 min, ISO 50 mg/kg i.p. at 15 min
[17] = hArg treatment, mice, dose-dependent

## N=C(N)NCCCC[C@H](N)C(=O)O [hArg, L-homoarginine]
[1]; [8]
  free Arg concentration, kidney homogenate: 365 µM
  free Arg concentration, lung homogenate: 102 µM
  free Lys concentration, kidney homogenate: 646 µM
  free Lys concentration, lung homogenate: 229 µM
[1]; [9]
  free Arg concentration, heart homogenate: 384 µM
  free Arg concentration, kidney homogenate: 37.4 µM
  free Arg concentration, liver homogenate: 124 µM
  free Arg concentration, lung homogenate: 210 µM
  free Lys concentration, heart homogenate: 644 µM
  free Lys concentration, kidney homogenate: 96 µM
  free Lys concentration, liver homogenate: 241 µM
  free Lys concentration, lung homogenate: 306 µM
[1]; [10]
  free Arg concentration, heart homogenate: 575 µM
  free Arg concentration, kidney homogenate: 60.7 µM
  free Arg concentration, liver homogenate: 14.3 µM
  free Arg concentration, lung homogenate: 7.34 µM
  free Lys concentration, heart homogenate: 834 µM
  free Lys concentration, kidney homogenate: 173 µM
  free Lys concentration, liver homogenate: 392 µM
  free Lys concentration, lung homogenate: 191 µM
[1]; [11]
  free Arg concentration, kidney homogenate: 73.8 µM
  free Arg concentration, liver homogenate: 10.3 µM
  free Arg concentration, lung homogenate: 185 µM
  free Lys concentration, kidney homogenate: 187 µM
  free Lys concentration, liver homogenate: 714 µM
  free Lys concentration, lung homogenate: 441 µM
[1]; [12]
  free Arg concentration, heart homogenate: 75.4 µM
  free Arg concentration, kidney homogenate: 370 µM
  free Arg concentration, liver homogenate: 21.2 µM
  free Arg concentration, lung homogenate: 261 µM
  free Lys concentration, heart homogenate: 151 µM
  free Lys concentration, kidney homogenate: 602 µM
  free Lys concentration, liver homogenate: 492 µM
  free Lys concentration, lung homogenate: 471 µM
[1]; [13]
  free Arg concentration, heart homogenate: 91.2 µM
  free Arg concentration, kidney homogenate: 733 µM
  free Arg concentration, liver homogenate: 15.9 µM
  free Arg concentration, lung homogenate: 171 µM
  free Lys concentration, heart homogenate: 154 µM
  free Lys concentration, kidney homogenate: 1101 µM
  free Lys concentration, liver homogenate: 391 µM
  free Lys concentration, lung homogenate: 245 µM
[1]; [14]
  free Arg concentration, heart homogenate: 92 µM
  free Arg concentration, kidney homogenate: 767 µM
  free Arg concentration, liver homogenate: 29.8 µM
  free Arg concentration, lung homogenate: 230 µM
  free Lys concentration, heart homogenate: 140 µM
  free Lys concentration, kidney homogenate: 1138 µM
  free Lys concentration, liver homogenate: 497 µM
  free Lys concentration, lung homogenate: 386 µM
[1]; [15]
  free Arg concentration, heart homogenate: 51.3 µM
  free Arg concentration, kidney homogenate: 262 µM
  free Arg concentration, liver homogenate: 10.1 µM
  free Arg concentration, lung homogenate: 136 µM
  free Lys concentration, heart homogenate: 153 µM
  free Lys concentration, kidney homogenate: 503 µM
  free Lys concentration, liver homogenate: 328 µM
  free Lys concentration, lung homogenate: 391 µM
[1]; [16]
  free Arg concentration, kidney homogenate: 56.3 µM
  free Arg concentration, liver homogenate: 15 µM
  free Arg concentration, lung homogenate: 233 µM
  free Lys concentration, kidney homogenate: 145 µM
  free Lys concentration, liver homogenate: 451 µM
  free Lys concentration, lung homogenate: 169 µM
[1]; after i.p. hArg, Figure 5
  increase in free GAA in the kidney: ~100 fold
[1]; all organs, data not shown
  effect on global arginine bioavailability ratio (GABR): independent of the hArg dose
Polyamine catabolism
  PUT/SPD molar ratio, heart: 1.5
  PUT/SPD molar ratio, kidney: 0.86
  PUT/SPD molar ratio, liver: 0.12
  PUT/SPD molar ratio, lung: 0.83
[2]; [17]
  infarct size: decreased infarct sizes
  neurological scores: improved neurological scores
[2]; oral hArg, C57BL6 mice, versus vehicle-treated
  hArg plasma concentration: 0.20 ± 0.02 µM
[3]; [8]
  KhArg/KGAA ratio, kidney: 0.13
  KhArg/KGAA ratio, lung: 6.8
  equilibrium constant KGAA, kidney: 1.83
  equilibrium constant KGAA, lung: 0.06
  equilibrium constant KhArg, kidney: 0.24
  equilibrium constant KhArg, lung: 0.40
[3]; [9]
  KhArg/KGAA ratio, heart: 0.002
  KhArg/KGAA ratio, kidney: 0.23
  KhArg/KGAA ratio, liver: 0.19
  KhArg/KGAA ratio, lung: 0.13
  equilibrium constant KGAA, heart: 2.26
  equilibrium constant KGAA, kidney: 0.31
  equilibrium constant KGAA, liver: 0.09
  equilibrium constant KGAA, lung: 0.023
  equilibrium constant KhArg, heart: 0.005
  equilibrium constant KhArg, kidney: 0.07
  equilibrium constant KhArg, liver: 0.02
  equilibrium constant KhArg, lung: 0.003
[3]; [10]
  KhArg/KGAA ratio, heart: 0.001
  KhArg/KGAA ratio, kidney: 0.16
  KhArg/KGAA ratio, liver: 0.35
  KhArg/KGAA ratio, lung: 0.06
  equilibrium constant KGAA, heart: 1.39
  equilibrium constant KGAA, kidney: 0.37
  equilibrium constant KGAA, liver: 2.11
  equilibrium constant KGAA, lung: 5.34
  equilibrium constant KhArg, heart: 0.002
  equilibrium constant KhArg, kidney: 0.06
  equilibrium constant KhArg, liver: 0.74
  equilibrium constant KhArg, lung: 0.31
[3]; [11]
  KhArg/KGAA ratio, kidney: 2.18
  KhArg/KGAA ratio, liver: 1.61
  KhArg/KGAA ratio, lung: 2.61
  equilibrium constant KGAA, kidney: 0.53
  equilibrium constant KGAA, liver: 12.6
  equilibrium constant KGAA, lung: 0.13
  equilibrium constant KhArg, kidney: 1.16
  equilibrium constant KhArg, liver: 20.3
  equilibrium constant KhArg, lung: 0.34
[3]; [12]
  KhArg/KGAA ratio, heart: 0.43
  KhArg/KGAA ratio, kidney: 0.006
  KhArg/KGAA ratio, liver: 0.31
  KhArg/KGAA ratio, lung: 0.27
  equilibrium constant KGAA, heart: 0.23
  equilibrium constant KGAA, kidney: 1.14
  equilibrium constant KGAA, liver: 2.45
  equilibrium constant KGAA, lung: 0.07
  equilibrium constant KhArg, heart: 0.10
  equilibrium constant KhArg, kidney: 0.007
  equilibrium constant KhArg, liver: 0.76
  equilibrium constant KhArg, lung: 0.02
[3]; [13]
  KhArg/KGAA ratio, heart: 1.9
  KhArg/KGAA ratio, kidney: 0.05
  KhArg/KGAA ratio, liver: 4.8
  KhArg/KGAA ratio, lung: 1.13
  equilibrium constant KGAA, heart: 0.20
  equilibrium constant KGAA, kidney: 1.32
  equilibrium constant KGAA, liver: 1.07
  equilibrium constant KGAA, lung: 0.03
  equilibrium constant KhArg, heart: 0.38
  equilibrium constant KhArg, kidney: 0.06
  equilibrium constant KhArg, liver: 5.16
  equilibrium constant KhArg, lung: 0.03
[3]; [14]
  KhArg/KGAA ratio, heart: 3.8
  KhArg/KGAA ratio, kidney: 0.07
  KhArg/KGAA ratio, liver: 6.7
  KhArg/KGAA ratio, lung: 4.0
  equilibrium constant KGAA, heart: 0.09
  equilibrium constant KGAA, kidney: 1.64
  equilibrium constant KGAA, liver: 0.80
  equilibrium constant KGAA, lung: 0.04
  equilibrium constant KhArg, heart: 0.33
  equilibrium constant KhArg, kidney: 0.12
  equilibrium constant KhArg, liver: 5.38
  equilibrium constant KhArg, lung: 0.17
[3]; [15]
  KhArg/KGAA ratio, heart: 0.36
  KhArg/KGAA ratio, kidney: 0.005
  KhArg/KGAA ratio, liver: 0.12
  KhArg/KGAA ratio, lung: 0.12
  equilibrium constant KGAA, heart: 0.31
  equilibrium constant KGAA, kidney: 1.94
  equilibrium constant KGAA, liver: 4.20
  equilibrium constant KGAA, lung: 0.21
  equilibrium constant KhArg, heart: 0.11
  equilibrium constant KhArg, kidney: 0.009
  equilibrium constant KhArg, liver: 0.50
  equilibrium constant KhArg, lung: 0.03
[3]; [16]
  KhArg/KGAA ratio, kidney: 1.8
  KhArg/KGAA ratio, liver: 2.0
  equilibrium constant KGAA, kidney: 0.35
  equilibrium constant KGAA, liver: 2.59
  equilibrium constant KhArg, kidney: 0.62
  equilibrium constant KhArg, liver: 5.26
  equilibrium constant KhArg, lung: 0.20
arginase
  substrate quality for arginase: poor substrate
[4]
  changes in nitrite and nitrate: marginal
[5]; healthy humans
  effects on cognition: did not reveal any appreciable effects on cognition
[5]; healthy young volunteers
  increase of plasma Lys concentration compared to placebo: about 8%
  pulse wave velocity, augmentation index, flow-mediated vasodilatation, corticospinal and cortical excitability: without changes
All organs, data not shown
  effect on citrullination (proteinic Cit) in organs: independent of the hArg dose
rat, in vivo
  incorporation of pharmacological hArg into tissue proteins: no incorporation of pharmacological hArg into tissue proteins
[6]
  tissue homoagmatine (hAgm) concentration, median [interquartile range]: 34.8 [4.6–270] nM

## CC(C)NCC(O)c1ccc(O)c(O)c1 (stereo not drawn) [isoprenaline]
[7]
  elimination half-life: 10 min

## NCCCC[C@H](N)C(=O)O [Lys, L-lysine]
Serotonin receptor 4
  action at serotonin receptor 4: partial serotonin receptor 4 antagonist
